Read-outs that look alike come from different tables or passages of the source.
Columns and labels:
[1] = test system: 60 different human tumor cell lines; settings: five dose
[2] = test system: NCI-H522 (NSCLC); assay: NCI 60 one dose screen; type: cell-based, human; settings: Non-small Cell Lung Cancer
[3] = test system: HCT-15 (Colon Cancer); assay: NCI 60 one dose screen; type: cell-based, human
[4] = test system: SR; assay: NCI 60 five dose screen
[5] = test system: glioblastoma (SF-295); assay: NCI 60 five dose screen
[6] = test system: RPMI-8226; assay: NCI 60 five dose screen
[7] = test system: 60 different human tumor cell lines; assay: NCI Development Therapeutics Program 60 cell line screen, one dose; type: cell-based
[8] = test system: SF-539; assay: NCI 60 one dose screen; type: cell-based, human; settings: one dose; CNS Cancer; SF-539

For `C[C@]12CCc3sc(Nc4ccc(OC(F)(F)F)cc4)nc3C1=CC[C@@H]1[C@@H]2CC[C@]2(C)C(=O)CC[C@@H]12` [IIa.19, (1S,2R,13R,14S,18S)-2,18-dimethyl-7-[4-(trifluoromethoxy)anilino]-6-thia-8-azapentacyclo[11.7.0.02,10.05,9.014,18]icosa-5(9),7,10-trien-17-one], the TGI ([1]; A549/ATCC (Non-small Cell Lung Cancer)) was 1.61E−5, the TGI ([1]; CCRF-CEM (Leukemia)) was greater than 1.00E−4 and the TGI ([1]; COLO 205 (Colon Cancer)) was 6.76E−6. It also gave a TGI ([1]; EKVX (Non-small Cell Lung Cancer)) of 1.74E−5, a TGI ([1]; HCC-2998 (Colon Cancer)) of 1.86E−5 and a TGI ([1]; HCT-15 (Colon Cancer)) of 4.10E−6. The TGI ([1]; HCT-116 (Colon Cancer)) was 2.78E6, the TGI ([1]; HL-60(TB) (Leukemia)) was 4.44E−6 and the TGI ([1]; HOP-62 (Non-small Cell Lung Cancer)) was 4.19E−6. The TGI ([1]; HOP-92 (Non-small Cell Lung Cancer)) was 3.44E−6, the TGI ([1]; HT29 (Colon Cancer)) was 1.09E−5 and the TGI ([1]; K-562 (Leukemia)) was 6.64E−6. For the same compound, the TGI ([1]; KM12 (Colon Cancer)) was 1.50E−5, the TGI ([1]; LOX IMVI (Melanoma)) was 3.18E−6 and the TGI ([1]; MALME-3M (Melanoma)) was 1.68E−5. It also gave a TGI ([1]; MOLT-4 (Leukemia)) of 1.19E−5, a TGI ([1]; NCI-H23 (Non-small Cell Lung Cancer)) of 2.17E−5 and a TGI ([1]; NCI-H226 (Non-small Cell Lung Cancer)) of 4.41E−5. The TGI ([1]; NCI-H322M (Non-small Cell Lung Cancer)) was 4.89E−5, the TGI ([1]; NCI-H460 (Non-small Cell Lung Cancer)) was 1.18E−5 and the TGI ([1]; NCI-H522 (Non-small Cell Lung Cancer)) was 4.56E−6. For the same compound, the TGI ([1]; SF-268 (CNS Cancer)) was 1.23E−5, the TGI ([1]; SNB-19 (CNS Cancer)) was 9.93E−6 and the TGI ([1]; SNB-75 (CNS Cancer)) was 6.23E−6. For the same compound, the TGI ([1]; SW-620 (Colon Cancer)) was 5.00E−6, the TGI ([1]; U251 (CNS Cancer)) was 3.26E−6 and the “Growth Percent” value [2] was 89.13%. The “Growth Percent” value [3] was 38.33%, the GI50 ([4]; Homo sapiens, SR) was 2.74 µM and the CC50 ([4]; Homo sapiens, SR, read-out: LC50) was greater than 100 µM. The TGI ([4]; SR (Leukemia), five dose) was greater than 1.00E−4, the GI50 ([5]; Homo sapiens, SF-295) was 0.7 µM and the CC50 ([5]; Homo sapiens, SF-295, read-out: LC50) was 7.16 µM. The TGI ([5]; SF-295 (CNS Cancer), five dose) was 2.44E−6, the GI50 ([6]; Homo sapiens, RPMI-8226) was 1.02 µM and the CC50 ([6]; Homo sapiens, RPMI-8226, read-out: LC50) was greater than 100 µM. The TGI ([6]; RPMI-8226 (Leukemia), five dose) was 3.77E−6, the “Growth Percent” value ([7]; Breast Cancer, BT-549) was 53.50% and the “Growth Percent” value ([7]; Breast Cancer, HS 578T) was 38.46%. For the same compound, the “Growth Percent” value ([7]; Breast Cancer, MCF7) was 17.08%, the “Growth Percent” value ([7]; Breast Cancer, MDA-MB-231/ATCC) was 73.45% and the “Growth Percent” value ([7]; Breast Cancer, MDA-MB-468) was 69.12%. For the same compound, the “Growth Percent” value ([7]; Breast Cancer, T-47D) was 41.82%, the “Growth Percent” value ([7]; CNS Cancer, SF-268) was 68.55% and the “Growth Percent” value ([7]; CNS Cancer, SNB-19) was 56.49%. For the same compound, the “Growth Percent” value ([7]; CNS Cancer, SNB-75) was 68.60%, the “Growth Percent” value ([7]; CNS Cancer, U251) was 34.08% and the “Growth Percent” value ([7]; Colon Cancer, COLO 205) was 67.03%. For the same compound, the “Growth Percent” value ([7]; Colon Cancer, HCC-2998) was 96.47%, the “Growth Percent” value ([7]; Colon Cancer, HCT-116) was 7.77% and the “Growth Percent” value ([7]; Colon Cancer, HT29) was 12.95%. The “Growth Percent” value ([7]; Colon Cancer, KM12) was 53.51%, the “Growth Percent” value ([7]; Colon Cancer, SW-620) was 43.34% and the “Growth Percent” value ([7]; Leukemia, CCRF-CEM) was 5.05%. The “Growth Percent” value ([7]; Leukemia, HL-60(TB)) was 43.98%, the “Growth Percent” value ([7]; Leukemia, K-562) was 8.20% and the “Growth Percent” value ([7]; Leukemia, MOLT-4) was 4.15%. The “Growth Percent” value ([7]; Leukemia, RPMI-8226) was 2.88%, the “Growth Percent” value ([7]; Leukemia, SR) was 16.86% and the “Growth Percent” value ([7]; Melanoma, LOX IMVI) was 34.82%. The “Growth Percent” value ([7]; Melanoma, M14) was 83.90%, the “Growth Percent” value ([7]; Melanoma, MALME-3M) was 76.83% and the “Growth Percent” value ([7]; Melanoma, MDA-MB-435) was 77.59%. For the same compound, the “Growth Percent” value ([7]; Melanoma, SK-MEL-2) was 61.81%, the “Growth Percent” value ([7]; Melanoma, SK-MEL-5) was 95.89% and the “Growth Percent” value ([7]; Melanoma, SK-MEL-28) was 65.29%. For the same compound, the “Growth Percent” value ([7]; Melanoma, UACC-62) was 63.42%, the “Growth Percent” value ([7]; Melanoma, UACC-257) was 84.04% and the “Growth Percent” value ([7]; Non-small Cell Lung Cancer, A549/ATCC) was 67.03%. For the same compound, the “Growth Percent” value ([7]; Non-small Cell Lung Cancer, EKVX) was 78.41%, the “Growth Percent” value ([7]; Non-small Cell Lung Cancer, HOP-62) was 80.02% and the “Growth Percent” value ([7]; Non-small Cell Lung Cancer, HOP-92) was 74.98%. For the same compound, the “Growth Percent” value ([7]; Non-small Cell Lung Cancer, NCI-H23) was 75.47%, the “Growth Percent” value ([7]; Non-small Cell Lung Cancer, NCI-H226) was 74.91% and the “Growth Percent” value ([7]; Non-small Cell Lung Cancer, NCI-H322M) was 77.29%. For the same compound, the “Growth Percent” value ([7]; Non-small Cell Lung Cancer, NCI-H460) was 53.27%, the “Growth Percent” value ([7]; Ovarian Cancer, IGROV1) was 93.62% and the “Growth Percent” value ([7]; Ovarian Cancer, NCI/ADR-RES) was 81.59%. For the same compound, the “Growth Percent” value ([7]; Ovarian Cancer, OVCAR-3) was 37.42%, the “Growth Percent” value ([7]; Ovarian Cancer, OVCAR-4) was 63.99% and the “Growth Percent” value ([7]; Ovarian Cancer, OVCAR-5) was 91.93%. For the same compound, the “Growth Percent” value ([7]; Ovarian Cancer, OVCAR-8) was 66.51%, the “Growth Percent” value ([7]; Ovarian Cancer, SK-OV-3) was 69.90% and the “Growth Percent” value ([7]; Prostate Cancer, DU-145) was 66.11%. For the same compound, the “Growth Percent” value ([7]; Prostate Cancer, PC-3) was 38.59%, the “Growth Percent” value ([7]; Renal Cancer, 786-0) was 30.50% and the “Growth Percent” value ([7]; Renal Cancer, A498) was 75.00%. For the same compound, the “Growth Percent” value ([7]; Renal Cancer, ACHN) was 71.59%, the “Growth Percent” value ([7]; Renal Cancer, CAKI-1) was 60.44% and the “Growth Percent” value ([7]; Renal Cancer, RXF 393) was −32.25%. For the same compound, the “Growth Percent” value ([7]; Renal Cancer, SN12C) was 71.17%, the “Growth Percent” value ([7]; Renal Cancer, TK-10) was 98.20% and the “Growth Percent” value ([7]; Renal Cancer, UO-31) was 54.33%. The “Growth Percent” value [8] was −5.40%.

Source: patent publication US20250296953A1, “3,4-THIAZOLO-STEROIDS AND METHODS OF MAKING AND USING THE SAME” (Arkansas State University - Jonesboro, priority 2018, published 2025)
